Experimental data: patent EP0490667B1, “HIV protease inhibitors” (priority 1990, dated 1992)

target: T1, chemically synthesized HIV protease (Human immunodeficiency virus type 1 group M subtype B, UniProt P12497, C555A/C583A); format: biochemical; conditions: inhibitor 5 µM final concentration (Tables 1-2)
T1 construct: The HIV protease was chemically synthesized; made in house; host or cells: chemical synthesis (no expression host)
From the text: The HPLC condition was as followes. Column: VYDAC 218 TP 54, C18 • Solvent A: 0.1% trifluoroacetic acid aqueous solution • Solvent B: acetonitrile • Gradient: B was increased in 1.0%/min from 100% of A,

Question: With “3-Phenylpropionyl-Msa-(2S,3S)-AHPBA-Pro-Ile-Val-NH2 [Example 62]” as the molecule, how does the “Residual Activity (%)” value read?
Answer: 3.2%

Question: How did the “Residual Activity (%)” value turn out when “Benzyloxycarbonyl-Val-(2R,3S)-AHPBA-Phe-NH-CH2-CH(CH3)2 [Example JJ]” was run?
Answer: 84.9%

Question: “Benzyloxycarbonyl-Val-(2R,3S)-AHPBA-Phe-Val-NH-CH2-CH(CH3)2 [Example HH]” was tested. Which “Residual Activity (%)” value did it give?
Answer: 83.4%

Question: “PhCH2-O-CO-Asn-(2S,3S)-AHPBA-Pro-NH-CH2-C6H11 [Example 49]” was tested. Which “Residual Activity (%)” value did it give?
Answer: 51.9%

same assay, conditions: inhibitor 1 mM (Tables 1-2)

Question: How did the “Residual Activity (%)” value turn out when “Furancarbonyl-Asn-(2S,3S)-AHPBA-Pro-Ile-Val-NH2 [Example 65]” was run?
Answer: 9.3%

Question: For “Thiophenecarbonyl-Asn-(2S,3S)-AHPBA-Pro-Ile-Val-NH2 [Example 67]”, which “Residual Activity (%)” value is on record?
Answer: 4.9%

same assay, conditions: inhibitor 1mM as headed in Tables 3-6

Question: Which “Residual Activity (%)” value does the source give for “1-Naphthoxyacetyl-Msa-(2S,3S)-AHPBA-Thz-NH-chex-ol [Example 158]” here?
Answer: <10%

Question: “Benzyloxycarbonyl-Asn-(2S,3S)-AHPBA-(D)-Pip-NH-tBu [Example 79]” was tested. Which “Residual Activity (%)” value did it give?
Answer: 84.0%

Question: How did the “Residual Activity (%)” value turn out when “Benzyloxycarbonyl-Asn-(2S,3S)-AHPBA-(L)-Pip-NH-tBu [Example 78]” was run?
Answer: 11.7%

Question: With “Benzyloxycarbonyl-Asn-(2S,3S)-AHPBA-Hyp(Bzl)-NH-tBu [Example 95]” as the molecule, how does the “Residual Activity (%)” value read?
Answer: 34.6%

Question: Which “Residual Activity (%)” value does the source give for “Benzyloxycarbonyl-Asn-(2S,3S)-AHPBA-Inc-NH-tBu [Example 96]” here?
Answer: 95.2%

Question: “Benzyloxycarbonyl-Asn-(2S,3S)-AHPBA-Pro-Aib-NH2 [Example 93]” was tested. Which “Residual Activity (%)” value did it give?
Answer: <10%

Question: Which “Residual Activity (%)” value does the source give for “Benzyloxycarbonyl-Asn-(2S,3S)-AHPBA-Pro-NH-CH2-C(CH3)3 [Example 83]” here?
Answer: 12.4%

Question: How did the “Residual Activity (%)” value turn out when “Benzyloxycarbonyl-Asn-(2S,3S)-AHPBA-Pro-NH-CH(C2H5)2 [Example 89]” was run?
Answer: <10%

Question: With “Benzyloxycarbonyl-Asn-(2S,3S)-AHPBA-Pro-NH-cyclopropyl [Example 88]” as the molecule, how does the “Residual Activity (%)” value read?
Answer: <10%

Question: With “Benzyloxycarbonyl-Asn-(2S,3S)-AHPBA-Pro-NH-tAmyl [Example 87]” as the molecule, how does the “Residual Activity (%)” value read?
Answer: 5.8%

Question: With “Benzyloxycarbonyl-Asn-(2S,3S)-AHPBA-Pro-O-tBu [Example 86]” as the molecule, how does the “Residual Activity (%)” value read?
Answer: 12.6%

Question: With “Benzyloxycarbonyl-Asn-(2S,3S)-AHPBA-Thz-NH-tBu [Example 82]” as the molecule, how does the “Residual Activity (%)” value read?
Answer: 1.3%

same assay, conditions: inhibitor 5mM as headed in Tables 3-6

Question: How did the “Residual Activity (%)” value turn out when “1-Isoquinolinecarbonyl-Asn-(2S,3S)-AHPBA-Pro-NH-tBu.AcOH [Example 140]” was run?
Answer: 72.8%

Question: With “1-Naphthoxyacetyl-Asn-(2S,3S)-AHPBA-Thz-NH-cyclopentyl [Example 128]” as the molecule, how does the “Residual Activity (%)” value read?
Answer: 10.5%

Question: With “1-Naphthoxyacetyl-Msa-(2S,3S)-AHPBA-Oic-NH-tBu [Example 146]” as the molecule, how does the “Residual Activity (%)” value read?
Answer: 97.5%

Question: How did the “Residual Activity (%)” value turn out when “1-Naphthoxyacetyl-Msa-(2S,3S)-AHPBA-Thz-Pip-O-CH3 [Example 159]” was run?
Answer: 90.8%

Question: With “1-Naphthoxyacetyl-Mta-(2S,3S)-AHPBA-Thz-NH-tBu [Example 162]” as the molecule, how does the “Residual Activity (%)” value read?
Answer: 2.9%

Question: With “2-Quinolinecarbonyl-Asn-(2S,3S)-AHPBA-Dtc-NH-tBu [Example 118]” as the molecule, how does the “Residual Activity (%)” value read?
Answer: 1.8%

Question: How did the “Residual Activity (%)” value turn out when “2-Quinolinecarbonyl-Asn-(2S,3S)-AHPBA-Pro-NH-tBu [Example 138]” was run?
Answer: 27.3%

Question: How did the “Residual Activity (%)” value turn out when CS(=O)(=O)C[C@H](NC(=O)COc1cccc2ccccc12)C(=O)N[C@@H](Cc1ccccc1)[C@H](O)C(=O)N1CSC[C@H]1C(=O)N[C@H](C(N)=O)c1ccccc1 [Example 157, 1-Naphthoxyacetyl-Msa-(2S,3S)-AHPBA-Thz-Phg-NH2] was run?
Answer: 93.9%

Question: How did the “Residual Activity (%)” value turn out when CC(C)(C)NC(=O)[C@@H]1CSCN1C(=O)[C@@H](O)[C@H](Cc1ccccc1)NC(=O)[C@H](CS(C)(=O)=O)NC(=O)COc1cccc(C(=O)N2CCOCC2)c1 [Example 168, m-(Morph-CO)-Ph-O-CH2-CO-Msa-(2S,3S)-AHPBA-Thz-NH-tBu] was run?
Answer: 44.5%

Question: How did the “Residual Activity (%)” value turn out when CS(=O)(=O)C[C@H](NC(=O)COc1cccc2ccccc12)C(=O)N[C@@H](Cc1ccccc1)[C@H](O)C(=O)N1CSC[C@H]1C(=O)NCC(N)=O [Example 172, 1-Naphthoxyacetyl-Msa-(2S,3S)-AHPBA-Thz-Gly-NH2] was run?
Answer: 77.9%

Question: For CS(=O)(=O)C[C@H](NC(=O)COc1cccc2ccccc12)C(=O)N[C@@H](Cc1ccccc1)[C@H](O)C(=O)N1CSC[C@H]1C(=O)NCCCC(N)=O [Example 173, 1-Naphthoxyacetyl-Msa-(2S,3S)-AHPBA-Thz-GABA-NH2], which “Residual Activity (%)” value is on record?
Answer: 65.0%

Question: Which “Residual Activity (%)” value does the source give for CC(CNC(=O)[C@@H]1CSCN1C(=O)[C@@H](O)[C@H](Cc1ccccc1)NC(=O)[C@H](CS(C)(=O)=O)NC(=O)COc1cccc2ccccc12)C(N)=O (stereo partly drawn) [Example 174, 1-Naphthoxyacetyl-Msa-(2S,3S)-AHPBA-Thz-BAIB-NH2] here?
Answer: 46.6%

Question: With CC(CC(N)=O)NC(=O)[C@@H]1CSCN1C(=O)[C@@H](O)[C@H](Cc1ccccc1)NC(=O)[C@H](CS(C)(=O)=O)NC(=O)COc1cccc2ccccc12 (stereo partly drawn) [Example 175, 1-Naphthoxyacetyl-Msa-(2S,3S)-AHPBA-Thz-BANB-NH2] as the molecule, how does the “Residual Activity (%)” value read?
Answer: 33.0%

Question: Which “Residual Activity (%)” value does the source give for “Benzyloxycarbonyl-Asn-(2S,3S)-AHPBA decahydroisoquinoline” here?
Answer: 8.6%

Question: For “Benzyloxycarbonyl-Asn-(2S,3S)-AHPBA-Ccp-NH-tBu [Example 187]”, which “Residual Activity (%)” value is on record?
Answer: 99.0%

Question: “Benzyloxycarbonyl-Asn-(2S,3S)-AHPBA-Cpp-NH-tBu [Example 185]” was tested. Which “Residual Activity (%)” value did it give?
Answer: 96.0%

Question: For “Benzyloxycarbonyl-Asn-(2S,3S)-AHPBA-Dmp-NH2 [Example 188]”, which “Residual Activity (%)” value is on record?
Answer: 98.1%

Question: With “Benzyloxycarbonyl-Asn-(2S,3S)-AHPBA-Dmp-NH-tBu [Example 182]” as the molecule, how does the “Residual Activity (%)” value read?
Answer: 26.8%

Question: “Benzyloxycarbonyl-Asn-(2S,3S)-AHPBA-Dtc-NH2 [Example 177]” was tested. Which “Residual Activity (%)” value did it give?
Answer: 74.2%

Question: With “Benzyloxycarbonyl-Asn-(2S,3S)-AHPBA-Dtc-NH-tBu [Example 104]” as the molecule, how does the “Residual Activity (%)” value read?
Answer: 3.8%

Question: For “Benzyloxycarbonyl-Asn-(2S,3S)-AHPBA-Pdp-NH-tBu [Example 164]”, which “Residual Activity (%)” value is on record?
Answer: 49.8%

Question: How did the “Residual Activity (%)” value turn out when “Benzyloxycarbonyl-Asn-(2S,3S)-AHPBA-Php-NH-tBu [Example 184]” was run?
Answer: 16.8%

Question: Which “Residual Activity (%)” value does the source give for “Benzyloxycarbonyl-Asn-(2S,3S)-AHPBA-Pro-NH-C(CH3)2-CH2-OH [Example 99]” here?
Answer: 62.2%

Question: Which “Residual Activity (%)” value does the source give for “Benzyloxycarbonyl-Asn-(2S,3S)-AHPBA-Pro-NH-sBu [Example 176]” here?
Answer: 82.6%

Question: With “Benzyloxycarbonyl-Asn-(2S,3S)-AHPBA-Tcp-NH-tBu [Example 186]” as the molecule, how does the “Residual Activity (%)” value read?
Answer: 99.5%

Question: Which “Residual Activity (%)” value does the source give for “Bis(4-chlorophenyl)methyloxyacetyl-Asn-(2S,3S)-AHPBA-Pro-NH-tBu [Example 94]” here?
Answer: 37.0%

Question: For “PhCH2-O-CO-Asn-(2S,3S)-AHPBA-(D)-Tic-NH-tBu [Example 103]”, which “Residual Activity (%)” value is on record?
Answer: 91.4%

Question: Which “Residual Activity (%)” value does the source give for “PhCH2-O-CO-Asn-(2S,3S)-ASPBA-(L)-Tic-NH-tBu [Example 102]” here?
Answer: 89.2%

Question: With “m-(Piper-CO-)Ph-O-CH2-CO-Msa-(2S,3S)-AHPBA-Thz-NH-tBu [Example 167]” as the molecule, how does the “Residual Activity (%)” value read?
Answer: 25.4%

Question: For “m-Isopropyloxyphenoxyacetyl-Msa-(2S,3S)-AHPBA-Dtc-NH-tBu [Example 166]”, which “Residual Activity (%)” value is on record?
Answer: 2.0%
